Laboratory results taken from US12453759B2, “Di-thioester cationic lipids” (TRANSLATE BIO, INC., priority 2019, dated 2025).

Tested on: hEPO protein expression
Assay: In vivo expression of hEPO after IM injection of hEPO mRNA lipid nanoparticles (serum ELISA)
Settings: LNP with hEPO mRNA, cationic lipid, DMG-PEG2000, cholesterol, DOPE, single IM injection into gastrocnemius, 0.1 ug, male BALB/c mice, FIG. 1
Protocol: Lipid nanoparticle formulations comprising human erythropoietin (hEPO) mRNA, a cationic Lipid, DMG-PEG2000, cholesterol and DOPE were administered intramuscularly to study mRNA delivery and resultant hEPO expression. Male BALB/c mice at 6-8 weeks old are given a single injection of the LNP formulations into the gastrocnemius muscle at a dosage level of 0.1 ug. Blood samples were collected at 6 and 24 hours post-dose. hEPO protein expression levels were measured in the sera samples by ELISA and presented in FIG. 1.

CCCCCCCCC(O)CN(CCSC(=O)[C@H]1CC[C@H](C(=O)SCCN(CC(O)CCCCCCCC)CC(O)CCCCCCCC)CC1)CC(O)CCCCCCCC (stereo partly drawn) [Compound 79]
in vivo protein production (hEPO protein expression levels in sera) (6 hours after administration): high levels of in vivo protein production

CCCCCCCCCCC(O)CN(CCSC(=O)c1ccc(C(=O)SCCN(CC(O)CCCCCCCCCC)CC(O)CCCCCCCCCC)cc1)CC(O)CCCCCCCCCC (stereo not drawn) [Compound 98]
in vivo protein production (hEPO protein expression levels in sera) (6 hours after administration): high levels of in vivo protein production | in vivo protein production (hEPO protein expression levels in sera) (24 hours after administration): high levels of in vivo protein production
